# Earlier results in patent US20160326157A1, “MONOBACTAMS AND METHODS OF THEIR SYNTHESIS AND USE” (PRESIDENT AND FELLOWS OF HARVARD COLLEGE, priority 2014, published 2016).
# Legend:
# [1] = system: Enterobacteriaceae
# [2] = system: Gram-positive or anaerobic bacteria
# [3] = in vivo
smiles,measurement,setting,value
C[C@H]1[C@H](NC(=O)/C(=N\OC(C)(C)C(=O)O)c2csc(N)n2)C(=O)N1S(=O)(=O)O [Aztreonam],concentration inhibiting most Enterobacteriaceae,[1],less than 0.5 g/mL
same,activity against Gram-positive or anaerobic bacteria,[2],inactive
same,absorption from the gastrointestinal tract,[3],not absorbed
same,route of excretion,[3],renally excreted
